We go through 34 molecules from ChEMBL document CHEMBL1137914, “Optimizing the antibacterial activity of a lead structure discovered by "SAR by MS" technology” (Bioorg Med Chem Lett, 2004).

The test system of assay [1] is Escherichia coli. In words: Antibacterial activity against Escherichia coli was determined at 100 uM. Type of assay: functional.
Assay [2] relates to Escherichia coli. In words: (§1) In vitro dissociation constant of compound required for inhibition of Escherichia coli translation was determined. Type of assay: functional, organism-based.
The subject of assay [3] is Escherichia coli. As to the kind of experiment: In vitro dissociation constant of compound required for inhibition of Escherichia coli translation by 50% was determined. Type of assay: functional.
Assay [4] relates to Staphylococcus aureus. As to the kind of experiment: Antibacterial activity against Staphylococcus aureus was determined at 100 uM. The format is functional.
The subject of assay [5] is Escherichia coli. Described as §1. The format is functional.
For assay [6], the system named is Escherichia coli. As to the kind of experiment: Minimal inhibitory concentration required against Escherichia coli ATCC 25922 was determined; values ranges from 6-13. The format is functional.
In assay [7] the test system is Staphylococcus aureus. As to the kind of experiment: Minimal inhibitory concentration required against Staphylococcus aureus ATCC 13709 was determined; values ranges from […]. The format is functional.
The subject of assay [8] is Staphylococcus aureus. In words: Minimal inhibitory concentration required against Staphylococcus aureus ATCC 13709 was determined. The format is functional.
For assay [9], the system named is Escherichia coli. In words: Minimal inhibitory concentration required against Escherichia coli ATCC 25922 was determined; values ranges from 13-25. The format is functional.
Assay [10] concerns Escherichia coli. As to the kind of experiment: Minimal inhibitory concentration required against Escherichia coli ATCC 25922 was determined; values ranges from 25-50. Type of assay: functional.
In assay [11] the test system is Staphylococcus aureus. In words: Minimal inhibitory concentration required against Staphylococcus aureus ATCC 13709 was determined; values ranges from 50-100. Type of assay: functional.
The subject of assay [12] is Staphylococcus aureus. As to the kind of experiment: Minimal inhibitory concentration required against Staphylococcus aureus ATCC 13709 was determined; values ranges from 3-6. The format is functional.
Another assay relates to Proteus vulgaris. In words: Minimal inhibitory concentration required against Proteus vulgaris was determined; values ranges from 50-100.
For another assay, the system named is Enterococcus faecalis. In words: Minimal inhibitory concentration required against Enterococcus faecalis was determined; values ranges from 3-6.
For the next assay, the system named is Streptococcus pyogenes. In words: Minimal inhibitory concentration required against Streptococcus pyogenes was determined; values ranges from 3-6.

The structures appear in SMILES notation.

What is called inhibition is how much of the control response was suppressed. A higher inhibition goes with strong suppression. For orientation: IC50 means the concentration that gives 50% inhibition. The term Kd denotes the concentration at which binding is half-saturated. High values mean weaker binding, low ones tighter binding. Turning to `NCC[C@@H](NC(=O)c1ccc(-c2cccc(NC(=O)c3ccc4nc(O)c(O)nc4c3)c2)o1)C(=O)N1CCNCC1`, the inhibition at 100 µM in the assay on Escherichia coli [1] and in the assay on Staphylococcus aureus [4] was below 75% in each case. In the assay with Escherichia coli [2], this molecule gave an IC50 of 14 µM. Further, binding in the assay on Escherichia coli [3] was put at a Kd of 6.5 µM.

In the assay on Escherichia coli [5], `C=CCNC(=O)c1ccc2nc(O)c(O)nc2c1` gave a Kd of 150 µM.

With `CN(C)CCCOc1ccc(C(NC(=O)c2ccc3nc(O)c(O)nc3c2)C(=O)N2CCNCC2)cc1` (configuration not stated), the inhibition at 100 µM with Escherichia coli [1] and in the assay with Staphylococcus aureus [4] was below 75% in each case. The same molecule displayed an IC50 with Escherichia coli [2] above 200 µM.

Take `NCC[C@@H](NC(=O)c1ccc(-c2ccccc2)o1)C(=O)N1CCNCC1`: the Kd with Escherichia coli [5] was 50 µM.

`NCC[C@@H](NC(=O)c1ccc(-c2cccc(NC(=O)c3cnc4ccccc4c3)c2)o1)C(=O)N1CCNCC1`: the inhibition at 100 µM in the assay on Escherichia coli [1] and in the assay with Staphylococcus aureus [4] was below 75% in each case. Moreover, in the assay on Escherichia coli [2], inhibition was half-maximal at 46 µM (IC50).

`Cc1nc2ccc(C(=O)Nc3cccc(-c4ccc(C(=O)NC(C(=O)N5CCNCC5)c5ccc(OCCCN(C)C)cc5)o4)c3)cc2nc1C` (configuration not stated): the inhibition at 100 µM with Escherichia coli [1] and in the assay on Staphylococcus aureus [4] was below 75% in each case. This molecule returned an IC50 in the assay with Escherichia coli [2] of 1 µM.

`CN(C)CCCOc1ccc(C(NC(=O)c2ccc(-c3cccc(N)c3)o2)C(=O)N2CCNCC2)cc1` (configuration not stated): the inhibition at 100 µM in the assay on Escherichia coli [1] and with Staphylococcus aureus [4] was below 75% each time. In the assay with Escherichia coli [2], this molecule returned an IC50 above 100 µM.

As to `CN(C)CCCOc1ccc(C(NC(=O)c2ccc(-c3cccc(NC(=O)C4CCCCC4)c3)o2)C(=O)N2CCNCC2)cc1` (configuration not stated), the inhibition at 100 µM in the assay with Escherichia coli [1] and in the assay with Staphylococcus aureus [4] was below 75% each time. Moreover, the IC50 with Escherichia coli [2] was above 100 µM.

By MIC is commonly meant the lowest concentration found to suppress growth. Read a high MIC as a need for much substance. As for `CN(C)CCCOc1ccc(C(NC(=O)c2ccc(-c3cccc(NC(=O)c4ccc5cc(Br)ccc5c4)c3)o2)C(=O)N2CCNCC2)cc1` (configuration not stated), the figures for the MIC against Escherichia coli [6] and against Staphylococcus aureus [7] were below 13 µM and below 25 µM, respectively. Moreover, in the assay on Escherichia coli [2], the IC50 came out at 5 µM.

In the case of `CCc1c(C)nc2ccc(C(=O)Nc3cccc(-c4ccc(C(=O)NC(C(=O)N5CCNCC5)c5ccc(OCCCN(C)C)cc5)o4)c3)cc2c1Cl` (configuration not stated), the MIC against Staphylococcus aureus [8] is above 100 µM; against Escherichia coli [9] it was below 25 µM. In the assay with Escherichia coli [2], this molecule yielded an IC50 of 0.78 µM.

With `CN(C)CCCOc1ccc(C(NC(=O)c2ccc(-c3cccc(NC(=O)c4ccccc4)c3)o2)C(=O)N2CCNCC2)cc1` (configuration not stated), the inhibition at 100 µM in the assay on Escherichia coli [1] and with Staphylococcus aureus [4] was below 75% in each case. For the same molecule, the IC50 in the assay with Escherichia coli [2] stood at 40 µM.

For `CN(C)CCCOc1ccc(C(NC(=O)c2ccc(-c3cccc(NC(=O)c4ccc5nc(O)c(O)nc5c4)c3)o2)C(=O)N2CCNCC2)cc1` (configuration not stated), the inhibition at 100 µM with Escherichia coli [1] and with Staphylococcus aureus [4] was below 75% in each case. Half-maximal inhibition in the assay on Escherichia coli [2] (IC50) was put at 3 µM.

As for `CN(C)CCCOc1ccc(C(NC(=O)c2ccc(-c3cccc(NS(=O)(=O)c4ccc5nc(O)c(O)nc5c4)c3)o2)C(=O)N2CCNCC2)cc1` (configuration not stated), the inhibition at 100 µM in the assay on Escherichia coli [1] and with Staphylococcus aureus [4] was below 75% throughout. The molecule further gave an IC50 with Escherichia coli [2] of 33 µM.

Consider `CN(C)CCCC(=O)Nc1cccc(-c2ccc(C(=O)N[C@H](CCN)C(=O)N3CCNCC3)o2)c1`, for which the inhibition at 100 µM with Escherichia coli [1] and in the assay with Staphylococcus aureus [4] was below 75% throughout. This molecule also registered an IC50 in the assay on Escherichia coli [2] above 100 µM.

As for `CN(C)CCCOc1ccc(C(NC(=O)c2ccc(-c3cccc(NC(=O)c4ccc5ccccc5c4)c3)o2)C(=O)N2CCNCC2)cc1` (configuration not stated), the MIC against Escherichia coli [10] is below 50 µM; against Staphylococcus aureus [11], below 100 µM. In the assay on Escherichia coli [2], this molecule yielded a concentration for half-maximal inhibition (IC50) of 10 µM.

In the case of `NCC[C@@H](NC(=O)c1ccc(-c2cccc(NC(=O)c3ccccn3)c2)o1)C(=O)N1CCNCC1`, the inhibition at 100 µM in the assay with Escherichia coli [1] and with Staphylococcus aureus [4] was below 75% in each case. The IC50 in the assay with Escherichia coli [2] is above 100 µM.

With `NCC[C@@H](NC(=O)c1ccc(-c2cccc(N)c2)o1)C(=O)N1CCNCC1`, the inhibition at 100 µM in the assay on Escherichia coli [1] and in the assay on Staphylococcus aureus [4] was below 75% each time. This molecule gave an IC50 in the assay on Escherichia coli [2] above 100 µM.

As to `NCC[C@@H](NC(=O)c1ccc(-c2cccc(NC(=O)c3nncs3)c2)o1)C(=O)N1CCNCC1`, the inhibition at 100 µM in the assay with Escherichia coli [1] and with Staphylococcus aureus [4] was below 75% each time. Also, the IC50 in the assay on Escherichia coli [2] was above 100 µM.

Regarding `Cc1nc2ccc(C(=O)Nc3cccc(-c4ccc(C(=O)N[C@H](CCN)C(=O)N5CCNCC5)o4)c3)cc2nc1C`, the inhibition at 100 µM in the assay on Escherichia coli [1] and in the assay on Staphylococcus aureus [4] was below 75% each time. The same molecule returned an IC50 with Escherichia coli [2] of 15 µM.

On to `CN(C)CCCOc1ccc(C(NC(=O)c2ccc(-c3cccc(NC(=O)c4ccccc4I)c3)o2)C(=O)N2CCNCC2)cc1` (configuration not stated), for which the inhibition at 100 µM in the assay with Escherichia coli [1] and with Staphylococcus aureus [4] was below 75% in each case. In the assay on Escherichia coli [2], this molecule displayed an IC50 of 38 µM.

Take `CN(C)CCCOc1ccc(C(NC(=O)c2ccc(-c3cccc(NC(=O)c4cnc5ccccc5c4)c3)o2)C(=O)N2CCNCC2)cc1` (configuration not stated): the inhibition at 100 µM in the assay with Escherichia coli [1] and in the assay with Staphylococcus aureus [4] was below 75% each time. Besides, the midpoint of inhibition in the assay on Escherichia coli [2], the IC50, lay at 5 µM.

With `Cc1cc(Cl)c2cc(C(=O)Nc3cccc(-c4ccc(C(=O)NC(C(=O)N5CCNCC5)c5ccc(OCCCN(C)C)cc5)o4)c3)ccc2n1` (configuration not stated), the inhibition at 100 µM in the assay with Escherichia coli [1] and with Staphylococcus aureus [4] was below 75% each time. In the assay with Escherichia coli [2], this molecule had an IC50 of 2 µM.

`NCC[C@@H](NC(=O)c1ccc(-c2cccc(NC(=O)c3cnccn3)c2)o1)C(=O)N1CCNCC1`: the inhibition at 100 µM in the assay with Escherichia coli [1] and in the assay on Staphylococcus aureus [4] was below 75% in each case. In the assay on Escherichia coli [2], this molecule displayed an IC50 above 100 µM.

As to `CN(C)CCCOc1ccc(C(NC(=O)c2ccc(-c3cccc(NC(=O)c4ccc5ncccc5c4)c3)o2)C(=O)N2CCNCC2)cc1` (configuration not stated), the inhibition at 100 µM in the assay with Escherichia coli [1] and with Staphylococcus aureus [4] was below 75% throughout. The molecule also registered an IC50 in the assay with Escherichia coli [2] of 6 µM.

Consider `CN(C)CCCOc1ccc(C(NC(=O)c2ccc(-c3cccc(NC(=O)c4ccccn4)c3)o2)C(=O)N2CCNCC2)cc1` (configuration not stated), for which the inhibition at 100 µM in the assay on Escherichia coli [1] and in the assay on Staphylococcus aureus [4] was below 75% in each case. Also, it took 20 µM to reach half-maximal inhibition in the assay on Escherichia coli [2] (IC50).

As to `CN(C)CCCOc1ccc(C(NC(=O)c2ccc(-c3cccc(NC(=O)CCCN(C)C)c3)o2)C(=O)N2CCNCC2)cc1` (configuration not stated), the inhibition at 100 µM in the assay on Escherichia coli [1] and with Staphylococcus aureus [4] was below 75% throughout. The IC50 with Escherichia coli [2] is above 100 µM.

For the molecule `CN(C)CCCOc1ccc(C(NC(=O)c2ccc(-c3cccc(NC(=O)c4cnccn4)c3)o2)C(=O)N2CCNCC2)cc1` (configuration not stated), the inhibition at 100 µM with Escherichia coli [1] and with Staphylococcus aureus [4] was below 75% in each case. Also, the IC50 in the assay with Escherichia coli [2] came to 15 µM.

As for `CN(C)CCCOc1ccc(C(NC(=O)c2ccc(-c3cccc(NC(=O)c4ccc5nc(O)c(O)nc5c4)c3)o2)C(N)=O)cc1` (configuration not stated), the inhibition at 100 µM in the assay with Escherichia coli [1] and in the assay on Staphylococcus aureus [4] was below 75% throughout. This molecule also showed an IC50 in the assay on Escherichia coli [2] of 10 µM.

For `CC(=O)Nc1cccc(-c2ccc(C(=O)NC(C(=O)N3CCNCC3)c3ccc(OCCCN(C)C)cc3)o2)c1` (configuration not stated), the inhibition at 100 µM in the assay with Escherichia coli [1] and in the assay on Staphylococcus aureus [4] was below 75% throughout. This molecule came in with an IC50 with Escherichia coli [2] above 100 µM.

On to `NCC[C@@H](NC(=O)c1ccc(-c2cccc(NS(=O)(=O)c3ccc4nc(O)c(O)nc4c3)c2)o1)C(=O)N1CCNCC1`, for which the inhibition at 100 µM in the assay with Escherichia coli [1] and with Staphylococcus aureus [4] was below 75% throughout. For the same molecule, the IC50 in the assay on Escherichia coli [2] was above 100 µM.

As for `CN(C)CCCOc1ccc(C(NC(=O)c2ccc(-c3cccc(NC(=O)c4ccc(-c5ccccc5)cc4)c3)o2)C(=O)N2CCNCC2)cc1` (configuration not stated), the MIC was below 13 µM against Escherichia coli [6]; below 6 µM against Staphylococcus aureus [12]; below 100 µM in the assay with Proteus vulgaris; below 6 µM in the assay on Enterococcus faecalis; below 6 µM in the assay on Streptococcus pyogenes. Besides, the midpoint of inhibition with Escherichia coli [2], the IC50, lay at 9 µM.

With `CN(C)CCCOc1ccc(C(NC(=O)c2ccc(-c3cccc(NC(=O)c4nncs4)c3)o2)C(=O)N2CCNCC2)cc1` (configuration not stated), the inhibition at 100 µM in the assay on Escherichia coli [1] and in the assay with Staphylococcus aureus [4] was below 75% each time. The molecule further had an IC50 in the assay on Escherichia coli [2] of 13 µM.

As to `CN(C)CCCOc1ccc(C(NC(=O)c2ccc(-c3cccc(NC(=O)c4ccc(Br)cc4)c3)o2)C(=O)N2CCNCC2)cc1` (configuration not stated), the values for the MIC against Escherichia coli [6] and against Staphylococcus aureus [7] were below 13 µM and below 25 µM, respectively. In addition, it took 5 µM to reach half-maximal inhibition in the assay on Escherichia coli [2] (IC50).

For the molecule `CN(C)CCCOc1ccc(C(NC(=O)c2ccc(-c3cccc(NC(=O)c4ccc(Cl)c(Cl)c4)c3)o2)C(=O)N2CCNCC2)cc1` (configuration not stated), the inhibition at 100 µM in the assay on Escherichia coli [1] and in the assay with Staphylococcus aureus [4] was below 75% each time. Besides, in the assay with Escherichia coli [2], the IC50 is 4 µM.
